# Columns and labels:
# VIM-1 = VIM-1 (Pseudomonas aeruginosa (strain ATCC 15692 / DSM 22644 / CIP 104116 / JCM 14847 / LMG 12228 / 1C / PRS 101 / PAO1), UniProt A0A0F7KYQ8); assay: biochemical; details: CCF2-FA substrate, 2 hours at 25° C
# Protocol: Enzyme Activity: Determination of IC50
# The Class B enzyme activities were measured in the presence of the test inhibitor in a fluorescence assay against a commercially available substrate consisting of a cephalosporin core linking 7-hydroxycoumarin to fluorescein (CCF2-FA). […] In a 384-well microplate, the test inhibitor was incubated with the metallo-β-lactamase enzyme and the substrate for 2 hours at 25° C. […] The IC50 value was determined from semi-logarithmic plots of enzyme inhibition versus inhibitor concentration, with a curve generated using a 4-parameter fit.
# [1] = system: Escherichia coli expressing NDM-1 (CLB30005, CLB30016); type: cell-based; details: with imipenem 1 μg/ml, 95% inhibition of bacterial growth; for Escherichia coli MITC95: NDM-1 (CLB30016)
# Protocol: (§1) Antibiotic Potentiation Activity: Determination of Synergistic Concentration
# (§2) The bacterial strains tested included the clinical strains Escherichia coli expressing NDM-1 (CLB30005, CLB30016), Serratia marcescens expressing IMP-1 (CL5741), and Klebsiella pneumoniae expressing VIM-1 (IHMA599644). Inhibitor activity was measured in the presence and absence of imipenem in a 384-well microplate.
# (§3) The clinical strains CLB30016, CL5741 and IHMA599644 were grown on trypticase soy agar containing 5% sheep's blood. The bacteria on agar plates were incubated at 35° C. with humidity overnight. The following day, individual colonies from each clinical strain were picked and resuspended in 5 ml saline to attain an OD600 of […], for CLB30016, CL5741 and IHMA599644, respectively. These were further diluted 1:100 into 1.1×CAMHB and used to inoculate the test wells as described below.
# (§4) Imipenem in 10 mM 3-(N-morpholino)propanesulfonic acid (MOPS, pH 7) was stored in single use aliquots at −80° C. […] On the day of the assay, 4 μl of antibiotic was added to 45 ul of bacteria followed by 1 μl of test compound and mixed by pipetting and with an orbital shaker. The concentration of antibiotic used in the assay was 1 μg/ml. Microplates were covered and incubated at 35° C. for 22 hours to 24 hours. At the end of the incubation, absorbance was determined using a spectrophotometer.
# (§5) For example, in general, the compounds of Examples 1-379 were determined to restore susceptibility to imipenem for one or more of the test organisms at concentrations of 100 μM or less.
# [2] = system: Klebsiella pneumoniae expressing VIM-1 (IHMA599644); type: cell-based; details: with imipenem 1 μg/ml, 95% inhibition of bacterial growth; for Klebsiella pneumoniae MITC95: VIM-1 (IHMA599644)
# Protocol: as §1, §2, §3, §4, §5
# [3] = system: Serratia marcescens expressing IMP-1 (CL5741); type: cell-based; details: with imipenem 1 μg/ml, 95% inhibition of bacterial growth; for Serratia marcescens MITC95: IMP-1 (CL5741)
# Protocol: as §1, §2, §3, §4, §5
# [4] = system: P. aeruginosa expressing IMP-1, efflux+ (MB9798); type: cell-based, Pseudomonas aeruginosa; details: for P. aeruginosa expressing IMP-1, efflux+ (MB9798) MITC95: imipenem at 2 μg/mL, in the presence of a class A, C, D serine β-lactamase inhibitor closely related to relebactam; for Efflux ratio: ratio MITC95 PA_9798/MITC95 PA_9799
# Text: (§6) The strain background is Pseudomonas aeruginosa PAO1.
# [5] = system: P. aeruginosa expressing IMP-1, efflux− (MB9799); assay: Efflux: concentration of MBL inhibitor which restores susceptibility to imipenem; type: cell-based, Pseudomonas aeruginosa; details: imipenem at 2 μg/mL, in the presence of a class A, C, D serine β-lactamase inhibitor closely related to relebactam
# Text: as §6
Structure (SMILES),IC50 (VIM-1),Escherichia coli expressing NDM-1 (CLB30016) MITC95 [1],Klebsiella pneumoniae expressing VIM-1 (IHMA599644) MITC95 [2],Serratia marcescens expressing IMP-1 (CL5741) MITC95 [3],"P. aeruginosa expressing IMP-1, efflux+ (MB9798) MITC95 [4]",Efflux ratio [4],"P. aeruginosa expressing IMP-1, efflux− (MB9799) MITC95 [5]",Escherichia coli MITC95 [1],Klebsiella pneumoniae MITC95 [2],Serratia marcescens MITC95 [3]
"Nc1nc2cc(-c3ccc([S+]([O-])C4CNC4)c(S(N)(=O)=O)c3-c3nn[nH]n3)ccc2[nH]1 (stereo not shown) [Example 11, 3-(2-amino-1H-benzo[d]imidazol-5-yl)-6-(azetidin-3-ylsulfinyl)-2-(2H-tetrazol-5-yl)benzenesulfonamide]",1.86 nM,0.3906 µM,0.3906 µM,0.7813 µM,3.125 µM,8.00,0.3906 µM,–,–,–
"Nc1nc2ccc(-c3ccc(S(=O)(=O)C4CCNCC4)c(S(N)(=O)=O)c3-c3nn[nH]n3)cc2[nH]1 [Example 41, 3-(2-amino-3H-benzo[d]imidazol-5-yl)-6-(piperidin-4-ylsulfonyl)-2-(2H-tetrazol-5-yl)benzenesulfonamide]",0.171 nM,1.563 µM,1.563 µM,1.563 µM,3.125 µM,4.00,0.7813 µM,–,–,–
"Nc1cnccc1-c1ccc(S(=O)(=O)C2CNC2)c(S(N)(=O)=O)c1-c1nnn[nH]1.O=C(O)C(F)(F)F [Example 105, 3-((4-(3-aminopyridin-4-yl)-2-sulfamoyl-3-(1H-tetrazol-5-yl)phenyl)sulfonyl)azetidin-1-ium 2,2,2-trifluoroacetate]",0.759 nM,3.125 µM,3.125 µM,1.563 µM,3.125 µM,2.00,1.563 µM,–,–,–
"CNc1ncc(-c2ccc(S(=O)(=O)C3CNC3)c(S(N)(=O)=O)c2-c2nnn[nH]2)cn1.O=C(O)C(F)(F)F [Example 106, 3-((4-(2-(methylamino)pyrimidin-5-yl)-2-sulfamoyl-3-(1H-tetrazol-5-yl)phenyl)sulfonyl)azetidin-1-ium 2,2,2-trifluoroacetate]",1.59 nM,12.5 µM,6.25 µM,3.125 µM,6.25 µM,4.00,1.563 µM,–,–,–
"NCc1cncc(-c2ccc(S(=O)(=O)C3CNC3)c(S(N)(=O)=O)c2-c2nnn[nH]2)c1.O=C(O)C(F)(F)F [Example 107, 3-((4-(5-(aminomethyl)pyridin-3-yl)-2-sulfamoyl-3-(1H-tetrazol-5-yl)phenyl)sulfonyl)azetidin-1-ium 2,2,2-trifluoroacetate]",28.3 nM,1.563 µM,3.125 µM,6.25 µM,12.5 µM,4.00,3.125 µM,–,–,–
"NS(=O)(=O)c1c(S(=O)(=O)C2CNC2)ccc(C2=CC3C=NNC3N=C2)c1-c1nnn[nH]1.O=C(O)C(F)(F)F (stereo not shown) [Example 108, 3-((4-(3a,7a-dihydro-1H-pyrazolo[3,4-b]pyridin-5-yl)-2-sulfamoyl-3-(1H-tetrazol-5-yl)phenyl)sulfonyl)azetidin-1-ium 2,2,2-trifluoroacetate]",0.612 nM,6.25 µM,6.25 µM,3.125 µM,25 µM,15.99,1.563 µM,–,–,–
"NS(=O)(=O)c1c(S(=O)(=O)C2CNC2)ccc(-c2ccc(O)nc2)c1-c1nnn[nH]1.O=C(O)C(F)(F)F [Example 109, 3-((4-(6-hydroxypyridin-3-yl)-2-sulfamoyl-3-(1H-tetrazol-5-yl)phenyl)sulfonyl)azetidin-1-ium 2,2,2-trifluoroacetate]",1.44 nM,0.7813 µM,3.125 µM,1.563 µM,12.5 µM,8.00,1.563 µM,–,–,–
"NS(=O)(=O)c1c(S(=O)(=O)C2CNC2)ccc(-c2ccc(CO)nc2)c1-c1nnn[nH]1.O=C(O)C(F)(F)F [Example 111, 3-((4-(6-(hydroxymethyl)pyridin-3-yl)-2-sulfamoyl-3-(1H-tetrazol-5-yl)phenyl)sulfonyl)azetidin-1-ium 2,2,2-trifluoroacetate]",0.96 nM,3.125 µM,6.25 µM,3.125 µM,6.25 µM,4.00,1.563 µM,–,–,–
"NS(=O)(=O)c1c(S(=O)(=O)C2CNC2)ccc(-c2cccc3c2C(=O)NS3(=O)=O)c1-c1nn[nH]n1 [Example 249, 6-(Azetidin-3-ylsulfonyl)-3-(1,1-dioxido-3-oxo-2,3-dihydrobenzo[d]isothiazol-4-yl)-2-(2H-tetrazol-5-yl)benzenesulfonamide]",0.322 nM,–,–,–,12.5 µM,2.00,6.25 µM,6.25 µM,25 µM,6.25 µM
"C[C@@H](CN)S(=O)(=O)c1ccc(-c2cccc3nc(N)[nH]c23)c(-c2nn[nH]n2)c1S(N)(=O)=O [Example 278, 3-(2-amino-3H-benzo[d]imidazol-4-yl)-6-((S)-1-aminopropan-2-ylsulfonyl)-2-(2H-tetrazol-5-yl)benzenesulfonamide]",0.365 nM,–,–,–,1.563 µM,2.00,0.7813 µM,0.3906 µM,1.563 µM,0.7813 µM
"Nc1nc2cc(F)cc(-c3ccc(S(=O)(=O)C4CNC4)c(S(N)(=O)=O)c3-c3nnn[nH]3)c2[nH]1 [Example 296, 3-(2-amino-5-fluoro-1H-benzo[d]imidazol-7-yl)-6-(azetidin-3-ylsulfonyl)-2-(1H-tetrazol-5-yl)benzenesulfonamide]",0.227 nM,–,–,–,0.7813 µM,1.00,0.7813 µM,0.5859 µM,1.172 µM,0.7813 µM
Nc1nc2nccc(-c3ccc(S(=O)(=O)C4CNC4)c(S(N)(=O)=O)c3-c3nnn[nH]3)c2[nH]1 [Example 302],9.99 nM,–,–,–,200 µM,16.00,12.5 µM,3.125 µM,6.25 µM,12.5 µM
"NCCS(=O)(=O)c1ccc(-c2ccnc3nc(N)[nH]c23)c(-c2nnn[nH]2)c1S(N)(=O)=O [Example 303, 3-(2-amino-1H-imidazo[4,5-b]pyridin-7-yl)-6-((2-aminoethyl)sulfonyl)-2-(1H-tetrazol-5-yl)benzenesulfonamide]",11.3 nM,–,–,–,100 µM,32.00,3.125 µM,3.125 µM,3.125 µM,6.25 µM
